{"source": "patent US5322842A", "about": "“Tricyclic benzodiazepine derivates, their preparation, and pharmaceutical compositions containing them” (Fujisawa Pharmaceutical Co., Ltd., priority 1990, dated 1994)", "tested_on": "CCK receptor (rat pancreatic membranes)", "test": "[125I] CCK-8 binding to rat pancreatic membranes", "settings": "test compound 1×10^-8 M, 50 pM 125I-CCK-8, 30 min, 37° C.", "protocol": "[^125 I ] CCK-8 binding to rat pancreatic membranes\nRats were killed by a blow on the head and bled to death. Whole pancreas (about 0.7 g) was removed, minced in a small quantity of 50 mM Tris-HCl buffer (pH 7.4), and homogenized in 30 vol: of the buffer by a polytron homogenizer. The homogenate was centrifuged at 30000×g (16000 rpm) for 10 min. The pellet was then resuspended in the same buffer by a glass-teflon homogenizer and recentrifuged at 30000×g for 10 min. This procedure (washings) was repeated twice more. The final pellet (membrane) was suspended in incubation medium (see below) so as to obtain a final protein concentration of 2 mg/ml. All manipulations were done at 0°-4° C.\n(ii) Receptor binding assay\nThe composition of incubation medium was as follows: 50 mM Tris-HCl (pH 7.4), 5 mM MgCl2, 5 mM dithiothreitol (DTT), 0.14 mg/ml bacitracin, and 0.2% bovine serum albumin (BSA). Freshly prepared membranes (200 μg protein) were incubated for 30 min under shaking at 37° C. in plastic tubes in 500 μl of incubation medium with 50 pM ^125 I-CCK-8 in the presence or absence of test compound (1×10^-8 M). To determine the non-specific binding, CCK-8 at 1 μM was added. […] After washing the filter with 50 mM Tris-HCl (pH 7.4) buffer containing 0.1% BSA, the radioactivity of the filter was counted. […] The effect of test compound was expressed as % inhibition of specific ^125 I-CCK-8 binding."}
{"smiles": "CN1CCN2C(=O)C(NC(=O)c3cc4ccccc4[nH]3)N=C(c3ccccc3F)c3cccc1c32", "note": "(racemic) [Example 2, (6RS)-1-methyl-5-oxo-6-(2-indolylcarbonylamino)-8-(2-fluorophenyl)-2,3,5,6-tetrahydro-1H-[1,4]diazepino-[1,7,6-de]quinoxaline]", "values": [{"measurement": "Inhibition (%) of specific 125I-CCK-8 binding", "result": 95.7, "unit": "%"}]}
